Measurements as given in US10294237B2, “Bicyclic heterocyclic amide derivative” (Sumitomo Dainippon Pharma Co., Ltd., priority 2015, dated 2019).

Experiments:
HCT-116 cells [1] = assay: Test for inhibiting sphere-forming ability of cancer cells; format: cell-based; details: HCT-116 spheres, non-adherent, serum-free, 4 days, CellTiter-Glo, read-out: IC50 (Sphere IC50 value; concentration for 50% inhibition of cell proliferation)
Method: (§1) The reliable methods established for measuring the self-renewal ability of cells which is one of the CSC's properties include a method for measuring the sphere-forming ability of cancer cells in non-adherent condition in the absence of serum (Cancer Res 65, 5506-5511 (2005)). HCT-116 cells were available from the American Type Culture Collection (ATCC). HCT-116 cells were cultured at 37° C. and 5% CO2 using the McCoy's 5a medium containing 10% fetal bovine serum (FBS) and 1% penicillin/streptomycin. HCT-116 cells were seeded in a 384 Well Black Clear Bottom Ultra-Low Attachment Microplate (Corning Cat. No. 3827) in an amount of 350-800 cells/well using the DMEM/F12 medium containing 2% B27 supplement (GIBCO), 20 ng/mL epidermal growth factor (EGF) (peprotech), 10 ng/mL basic fibroblast growth factor (bFGF) (peprotech), 5 μg/mL insulin (Sigma), and 1% penicillin/streptomycin. The test compounds were added into each well to adjust the final concentration of DMSO to 0.1%, and the cells were cultured for 4 days. The number of viable cells in each well was then measured with CellTiter-Glo® Luminescent Cell Viability Assay (Promega) to calculate the concentration of each test compound for 50% inhibition of cell proliferation (Sphere IC50 value; μmol/L).
The experiment of Test Example 1 was performed for the compounds of each Example. The concentrations of each test compound for 50% inhibition of cell profeliration (Sphere IC50 value; μmol/L) are shown in the following Table.

HCT-116 cells [2] = assay: Test for inhibiting sphere-forming ability of cancer cells (in the presence of BSA); format: cell-based; details: HCT-116 spheres, non-adherent, 5% BSA, 4 days, CellTiter-Glo, read-out: IC50 (Sphere IC50 value; concentration for 50% inhibition of cell proliferation)
Method: as §1, with “HCT-116” for “The reliable methods established for measuring the self-renewal ability of cells which is one of the CSC's properties include a method for measuring the sphere-forming ability of cancer cells in non-adherent condition in the absence of serum (Cancer Res 65, 5506-5511 (2005)). HCT-116”, “(Sigma), 5% bovine serum albumin (BSA),” for “(Sigma),”
The experiment of Test Example 2 was performed for the compounds of each Example. The concentrations of each test compound for 50% inhibition of cell profeliration (Sphere IC50 value; μmol/L) are shown in the following Table.

HCT-116 cells [3] = assay: Anti-tumor effect to HCT-116 tumor-bearing mouse; format: in vivo; details: oral, administration period 17 days, nude mouse
From the text: The present compound can be used to evaluate the anti-tumor effect thereof. A 4 to 7-week-old nude mouse (BALB/cAnNCrj-nu/nu, female, CHARLES RIVER LABORATORIES JAPAN, INC.) received intradermal transplantation of HCT-116 cells (ATCC) in an amount of 3×10^6 cells/mouse around the ventral portion. The engraftment of HCT-116 cells was observed 5 to 14 days after the transplantation, and then each compound suspended in a solvent such as 0.5% methylcellulose solution was orally administrated to the mouse in a dose of 1 to 100 mg/kg one to twice daily. The tumor volume was measured over time after the administration to evaluate the effect for reducing the tumor volume by the administration of each compound. The tumor volume can be calculated from the minor axis and the major axis of the tumor measured with a digital caliper (Mitutoyo) according to the following formula: Tumor volume [mm^3]=0.5×minor axis [mm]×(major axis [mm])^2
The tumor volume in control administration group treated with only a solvent such as 0.5% methylcellulose solution was compared with that of the present compound administration group, and T/C value was calculated according the following formula to evaluate the anti-tumor effect of the present compound. T/C(%)=(the tumor volume at the end of administration in the present compound administration group−the tumor volume at the start of administration in the present compound administration group)/(the tumor volume at the end of administration in the control administration group−the tumor volume at the start of administration in the control administration group)×100
The T/C values (%) of the present compound on each dosage and administration period in the HCT-116 tumor-bearing mouse are shown below.

| Compound | IC50 (HCT-116 cells [1]) [nM] | IC50 (HCT-116 cells [2]) [nM] | IC50 (HCT-116 cells [1]; Homo sapiens, 96 h) [nM] | IC50 (HCT-116 cells [2]; Homo sapiens, HCT-116, 96 h) [nM] | T/C (HCT-116 cells [3]; dosage 30 mg/kg) [%] | T/C (HCT-116 cells [3]; dosage 100 mg/kg) [%] | T/C (HCT-116 cells [3]; dosage 10 mg/kg) [%] |
| --- | --- | --- | --- | --- | --- | --- | --- |
| O=C(Nc1cn(Cc2cc(F)c(F)c(F)c2)cn1)c1ccc2c(c1)CCNC2 [Example 6, N-[1-(3,4,5-trifluorobenzyl)-1H-imidazol-4-yl]-1,2,3,4-tetrahydroisoquinoline-6-carboxamide] | 60 | 50 | – | – | 73 | – | – |
| O=C(Nc1cn(Cc2cccc(C(F)(F)F)c2)cn1)c1ccc2c(n1)CCNC2 [Example 10, N-{1-[3-(trifluoromethyl)benzyl]-1H-imidazol-4-yl}-5,6,7,8-tetrahydro-1,6-naphthyridine-2-carboxamide] | – | – | 40 | 50 | 55 | 49 | – |
| O=C(Nc1cc2c(cn1)CNCC2)c1cn(Cc2cc(F)c(F)c(F)c2)cn1 [Example 3, N-(5,6,7,8-tetrahydro-2,7-naphthyridin-3-yl)-1-(3,4,5-trifluorobenzyl)-1H-imidazole-4-carboxamide] | – | – | 60 | 30 | 79 | – | 90 |
| O=C(Nc1cn(Cc2cc(F)c(F)c(F)c2)cn1)c1cc(F)c2c(c1)CCNC2 [Example 5, 8-fluoro-N-[1-(3,4,5-trifluorobenzyl)-1H-imidazol-4-yl]-1,2,3,4-tetrahydroisoquinoline-6-carboxamide] | – | – | 70 | 60 | 71 | 42 | – |
| O=C(Nc1cn(Cc2cc(F)c(F)c(F)c2)cn1)c1ccc2c(n1)CCNC2 [Example 11, N-[1-(3,4,5-trifluorobenzyl)-1H-imidazol-4-yl]-5,6,7,8-tetrahydro-1,6-naphthyridine-2-carboxamide] | – | – | 50 | 50 | 62 | 46 | – |
| O=C(Nc1cn(Cc2cccc(C(F)(F)F)c2)cn1)c1ccc2c(c1F)CCNC2 [Example 15] | – | – | 360 | 550 | – | – | – |
| O=C(/C=C/c1ccc2c(c1)OC(F)(F)O2)Nc1cn(Cc2cccc(Cl)c2)cn1 [Example 40] | – | – | 80 | 70 | – | – | – |
| O=C(Nc1cn(Cc2cccc(C(F)(F)F)c2)cn1)c1cc2c(s1)CCNC2 [Example 16] | – | – | 5850 | 6000 | – | – | – |
| O=C(Nc1cn(Cc2cccc(Oc3ccccc3)c2)cn1)c1cnc2c(c1)CCNC2 [Example 50, N-[1-(3-phenoxybenzyl)-1H-imidazol-4-yl]-5,6,7,8-tetrahydro-1,7-naphthyridine-3-carboxamide] | – | – | 50 | 660 | – | – | – |
| O=C(Nc1cn(Cc2cccc(C(F)(F)F)c2)cn1)c1cnc2c(c1)CCNC2 [Example 13, N-{1-[3-(trifluoromethyl)benzyl]-1H-imidazol-4-yl}-5,6,7,8-tetrahydro-1,7-naphthyridine-3-carboxamide] | – | – | 30 | 60 | 62 | 59 | – |
| O=C(Nc1cn(Cc2cc(F)c(F)c(F)c2)cn1)c1cnc2c(c1)CCNC2 [Example 12, N-[1-(3,4,5-trifluorobenzyl)-1H-imidazol-4-yl]-5,6,7,8-tetrahydro-1,7-naphthyridine-3-carboxamide] | – | – | 70 | 60 | 79 | 73 | – |
| O=C(Nc1cc2c(cn1)CNCC2)c1cn(Cc2ccc(F)c(F)c2)cn1 [Example 35, 1-(3,4-difluorobenzyl)-N-(5,6,7,8-tetrahydro-2,7-naphthyridin-3-yl)-1H-imidazole-4-carboxamide] | – | – | 80 | 50 | – | – | – |
| O=C(Nc1cn(Cc2ccc(F)c(C(F)(F)F)c2)cn1)c1cnc2c(c1)CCNC2 [Example 53, N-{1-[4-fluoro-3-(trifluoromethyl)benzyl]-1H-imidazol-4-yl}-5,6,7,8-tetrahydro-1,7-naphthyridine-3-carboxamide] | – | – | 60 | 60 | – | – | – |
| O=C(Nc1cn(Cc2cccc(Cl)c2)cn1)c1cnc2c(c1)CCNC2 [Example 43] | – | – | 720 | 540 | – | – | – |
| O=C(Nc1cn(Cc2cc(F)c(F)c(F)c2)cn1)c1ccc2c(c1F)CCNC2 [Example 14] | – | – | 430 | 460 | – | – | – |

Further lines, with some results ahead:

| IC50 (HCT-116 cells [1]) [nM] | IC50 (HCT-116 cells [2]) [nM] | IC50 (HCT-116 cells [1]; Homo sapiens, 96 h) [nM] | IC50 (HCT-116 cells [2]; Homo sapiens, HCT-116, 96 h) [nM] | Compound | T/C (HCT-116 cells [3]; dosage 30 mg/kg) [%] | T/C (HCT-116 cells [3]; dosage 100 mg/kg) [%] | T/C (HCT-116 cells [3]; dosage 10 mg/kg) [%] |
| --- | --- | --- | --- | --- | --- | --- | --- |
| 620 | 600 | – | – | Cc1cccc(Cn2cnc(NC(=O)c3ccc4c(c3)CCNC4)c2)c1 [Example 80] | – | – | – |
| 620 | 600 | – | – | O=C(Nc1cn(Cc2cccc(F)c2)cn1)c1ccc2c(c1)CCNC2 [Example 77] | – | – | – |
| 80 | 70 | – | – | Cc1cccc(Cn2cnc(NC(=O)c3cnc4c(c3)CCNC4)c2)c1 [Example 121] | – | – | – |
| 470 | 560 | – | – | O=C(Nc1cn(CCC2CCCCC2)cn1)c1ccc2c(c1)CCNC2 [Example 86] | – | – | – |
| 5030 | 950 | – | – | N#Cc1cccc(Cn2cnc(NC(=O)c3ccc4c(c3)CCNC4)c2)c1 [Example 88] | – | – | – |
| 5990 | 1970 | – | – | O=C(Nc1cn(CCOc2ccccc2)cn1)c1cnc2c(c1)CCNC2 [Example 116] | – | – | – |
| – | – | 70 | 100 | O=C(Nc1cn(Cc2ccc(Cl)c(F)c2)cn1)c1ccc2c(c1)CCNC2 [Example 90, N-[1-(4-chloro-3-fluorobenzyl)-1H-imidazol-4-yl]-1,2,3,4-tetrahydroisoquinoline-6-carboxamide] | – | – | – |
| 550 | 490 | – | – | O=C(Nc1cn(Cc2ccc(F)cc2)cn1)c1ccc2c(c1)CCNC2 [Example 79] | – | – | – |
| – | – | 40 | 60 | O=C(Nc1cn(Cc2cc(Cl)cc(OC(F)(F)F)c2)cn1)c1cnc2c(c1)CCNC2 [Example 70, N-{1-[3-chloro-5-(trifluoromethoxy)benzyl]-1H-imidazol-4-yl}-5,6,7,8-tetrahydro-1,7-naphthyridine-3-carboxamide] | – | – | – |
| 400 | 610 | – | – | O=C(Nc1cn(Cc2ccc(OC(F)(F)F)cc2)cn1)c1ccc2c(c1)CCNC2 [Example 75] | – | – | – |
| 560 | 560 | – | – | COc1cccc(Cn2cnc(NC(=O)c3ccc4c(c3)CCNC4)c2)c1 [Example 78] | – | – | – |
| 70 | 160 | – | – | O=C(Nc1cn(CCC2CCCCC2)cn1)c1cnc2c(c1)CCNC2 [Example 56] | – | – | – |
